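Each compound was tested at five concentrations against cells in 96-well plates for 48 hours. The concentration for full growth arrest is given as TGI.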
Key:
Assay in all cases: NCI-60 cell line screen, 48 h
A498 renal = system: A498 renal
A549 NSCLC = system: A549 NSCLC
ACHN renal = system: ACHN renal
CAKI-1 renal = system: CAKI-1 renal
CCRF-CEM leukemia = system: CCRF-CEM leukemia
COLO 205 colon = system: COLO 205 colon
DLD-1 colon = system: DLD-1 colon
DMS 114 small cell lung = system: DMS 114 small cell lung
DMS 273 small cell lung = system: DMS 273 small cell lung
EKVX NSCLC = system: EKVX NSCLC
HCC-2998 colon = system: HCC-2998 colon
HCT-116 colon = system: HCT-116 colon
HCT-15 colon = system: HCT-15 colon
HL-60(TB) leukemia = system: HL-60(TB) leukemia
HOP-62 NSCLC = system: HOP-62 NSCLC
HOP-92 NSCLC = system: HOP-92 NSCLC
HT29 colon = system: HT29 colon
IGROV1 ovarian = system: IGROV1 ovarian
K-562 leukemia = system: K-562 leukemia
KM12 colon = system: KM12 colon
KM20L2 colon = system: KM20L2 colon
LOX IMVI melanoma = system: LOX IMVI melanoma
LXFL 529 NSCLC = system: LXFL 529 NSCLC
M14 melanoma = system: M14 melanoma
M19-MEL melanoma = system: M19-MEL melanoma
MOLT-4 leukemia = system: MOLT-4 leukemia
NCI-H226 lung = system: NCI-H226 lung
NCI-H23 lung = system: NCI-H23 lung
NCI-H460 lung = system: NCI-H460 lung
NCI-H522 lung = system: NCI-H522 lung
OVCAR-4 ovarian = system: OVCAR-4 ovarian
OVCAR-5 ovarian = system: OVCAR-5 ovarian
OVCAR-8 ovarian = system: OVCAR-8 ovarian
RPMI-8226 leukemia = system: RPMI-8226 leukemia
RXF 393 renal = system: RXF 393 renal
RXF-631 renal = system: RXF-631 renal
SF-268 CNS = system: SF-268 CNS
SF-295 CNS = system: SF-295 CNS
SF-539 CNS = system: SF-539 CNS
SK-MEL-2 melanoma = system: SK-MEL-2 melanoma
SK-MEL-28 melanoma = system: SK-MEL-28 melanoma
SK-MEL-5 melanoma = system: SK-MEL-5 melanoma
SK-OV-3 ovarian = system: SK-OV-3 ovarian
SN12C renal = system: SN12C renal
SNB-19 CNS = system: SNB-19 CNS
SNB-75 CNS = system: SNB-75 CNS
SNB-78 CNS = system: SNB-78 CNS
SR leukemia = system: SR leukemia
SW-620 colon = system: SW-620 colon
TK-10 renal = system: TK-10 renal
U251 CNS = system: U251 CNS
UACC-257 melanoma = system: UACC-257 melanoma
UACC-62 melanoma = system: UACC-62 melanoma
UO-31 renal = system: UO-31 renal
XF 498 CNS = system: XF 498 CNS
786-0 renal = system: 786-0 renal
HOP-18 NSCLC = system: HOP-18 NSCLC
MALME-3M melanoma = system: MALME-3M melanoma
OVCAR-3 ovarian = system: OVCAR-3 ovarian

CC1CC(c2ccccc2)=Nc2ccccc2S1 (stereo not given)
TGI (A498 renal): > 100 µM
TGI (A549 NSCLC): > 100 µM
TGI (ACHN renal): > 100 µM
TGI (CAKI-1 renal): > 100 µM
TGI (CCRF-CEM leukemia): > 100 µM
TGI (COLO 205 colon): > 100 µM
TGI (DLD-1 colon): > 100 µM
TGI (DMS 114 small cell lung): > 100 µM
TGI (DMS 273 small cell lung): > 100 µM
TGI (EKVX NSCLC): > 100 µM
TGI (HCC-2998 colon): > 100 µM
TGI (HCT-116 colon): > 100 µM
TGI (HCT-15 colon): > 100 µM
TGI (HL-60(TB) leukemia): > 100 µM
TGI (HOP-62 NSCLC): > 100 µM
TGI (HOP-92 NSCLC): > 100 µM
TGI (HT29 colon): > 100 µM
TGI (IGROV1 ovarian): > 100 µM
TGI (K-562 leukemia): > 100 µM
TGI (KM12 colon): > 100 µM
TGI (KM20L2 colon): > 100 µM
TGI (LOX IMVI melanoma): > 100 µM
TGI (LXFL 529 NSCLC): > 100 µM
TGI (M14 melanoma): > 100 µM
TGI (M19-MEL melanoma): > 100 µM
TGI (MOLT-4 leukemia): > 100 µM
TGI (NCI-H226 lung): > 100 µM
TGI (NCI-H23 lung): > 100 µM
TGI (NCI-H460 lung): > 100 µM
TGI (NCI-H522 lung): > 100 µM
TGI (OVCAR-4 ovarian): > 100 µM
TGI (OVCAR-5 ovarian): > 100 µM
TGI (OVCAR-8 ovarian): > 100 µM
TGI (RPMI-8226 leukemia): > 100 µM
TGI (RXF 393 renal): > 100 µM
TGI (RXF-631 renal): > 100 µM
TGI (SF-268 CNS): > 100 µM
TGI (SF-295 CNS): > 100 µM
TGI (SF-539 CNS): > 100 µM
TGI (SK-MEL-2 melanoma): > 100 µM
TGI (SK-MEL-28 melanoma): > 100 µM
TGI (SK-MEL-5 melanoma): > 100 µM
TGI (SK-OV-3 ovarian): > 100 µM
TGI (SN12C renal): > 100 µM
TGI (SNB-19 CNS): > 100 µM
TGI (SNB-75 CNS): > 100 µM
TGI (SNB-78 CNS): > 100 µM
TGI (SR leukemia): > 100 µM
TGI (SW-620 colon): > 100 µM
TGI (TK-10 renal): > 100 µM
TGI (U251 CNS): > 100 µM
TGI (UACC-257 melanoma): > 100 µM
TGI (UACC-62 melanoma): > 100 µM
TGI (UO-31 renal): > 100 µM
TGI (XF 498 CNS): > 100 µM

COc1ccc(/C=C/C(=O)c2c(-c3ccccc3)nn(C)c(=O)c2N2CCCCC2)cc1
TGI (786-0 renal): 38.2 µM
TGI (A549 NSCLC): > 100 µM
TGI (ACHN renal): > 100 µM
TGI (CAKI-1 renal): 92.4 µM
TGI (CCRF-CEM leukemia): 40.2 µM
TGI (COLO 205 colon): 44 µM
TGI (DLD-1 colon): 82.6 µM
TGI (DMS 114 small cell lung): 78.4 µM
TGI (DMS 273 small cell lung): > 100 µM
TGI (EKVX NSCLC): > 100 µM
TGI (HCT-116 colon): 23.6 µM
TGI (HCT-15 colon): > 100 µM
TGI (HOP-18 NSCLC): 73.9 µM
TGI (HOP-92 NSCLC): 16.8 µM
TGI (HT29 colon): 35.9 µM
TGI (IGROV1 ovarian): 77.9 µM
TGI (K-562 leukemia): 63 µM
TGI (KM20L2 colon): 33.8 µM
TGI (LOX IMVI melanoma): 38.2 µM
TGI (LXFL 529 NSCLC): 98.8 µM
TGI (M14 melanoma): 66 µM
TGI (M19-MEL melanoma): 79.3 µM
TGI (MOLT-4 leukemia): 23.1 µM
TGI (NCI-H23 lung): 50.7 µM
TGI (NCI-H460 lung): 49.4 µM
TGI (NCI-H522 lung): 27.3 µM
TGI (OVCAR-8 ovarian): > 100 µM
TGI (RPMI-8226 leukemia): 31.8 µM
TGI (RXF 393 renal): 28 µM
TGI (RXF-631 renal): > 100 µM
TGI (SF-268 CNS): 66.1 µM
TGI (SF-295 CNS): 44.4 µM
TGI (SF-539 CNS): 37.8 µM
TGI (SK-MEL-28 melanoma): 30.2 µM
TGI (SK-MEL-5 melanoma): 29.1 µM
TGI (SK-OV-3 ovarian): 77.6 µM
TGI (SN12C renal): 64.2 µM
TGI (SNB-19 CNS): 86.5 µM
TGI (SW-620 colon): > 100 µM
TGI (TK-10 renal): > 100 µM
TGI (U251 CNS): 30.1 µM
TGI (UACC-62 melanoma): 44.8 µM
TGI (UO-31 renal): 34.7 µM

COS(=O)c1cc(Cl)cc(Cl)c1OC(=O)CSSCC(=O)Oc1c(Cl)cc(Cl)cc1S(=O)OC (stereo not given)
TGI (786-0 renal): 54.5 µM
TGI (A498 renal): 54.1 µM
TGI (A549 NSCLC): 47.2 µM
TGI (ACHN renal): 64.2 µM
TGI (CAKI-1 renal): 63.1 µM
TGI (CCRF-CEM leukemia): 59.7 µM
TGI (COLO 205 colon): 44.8 µM
TGI (DLD-1 colon): 40.7 µM
TGI (DMS 114 small cell lung): 35.3 µM
TGI (DMS 273 small cell lung): 32.7 µM
TGI (EKVX NSCLC): 41.9 µM
TGI (HCC-2998 colon): 40.3 µM
TGI (HCT-15 colon): 45.1 µM
TGI (HL-60(TB) leukemia): 52.9 µM
TGI (HOP-18 NSCLC): > 100 µM
TGI (HOP-92 NSCLC): 53.2 µM
TGI (HT29 colon): 96.9 µM
TGI (IGROV1 ovarian): 46.5 µM
TGI (K-562 leukemia): 51.1 µM
TGI (KM12 colon): 36.2 µM
TGI (KM20L2 colon): 67.2 µM
TGI (LOX IMVI melanoma): 43.8 µM
TGI (LXFL 529 NSCLC): 47.6 µM
TGI (M14 melanoma): 46.3 µM
TGI (M19-MEL melanoma): 57.7 µM
TGI (MALME-3M melanoma): 42.4 µM
TGI (MOLT-4 leukemia): 46.2 µM
TGI (NCI-H23 lung): 27.8 µM
TGI (NCI-H460 lung): 55.5 µM
TGI (NCI-H522 lung): 30.2 µM
TGI (OVCAR-3 ovarian): 86.4 µM
TGI (OVCAR-4 ovarian): 51.6 µM
TGI (OVCAR-5 ovarian): 41.2 µM
TGI (OVCAR-8 ovarian): 61.9 µM
TGI (RPMI-8226 leukemia): 38.3 µM
TGI (RXF 393 renal): 43.7 µM
TGI (RXF-631 renal): 63.7 µM
TGI (SF-268 CNS): 44.9 µM
TGI (SF-295 CNS): 67.5 µM
TGI (SF-539 CNS): 47.6 µM
TGI (SK-MEL-2 melanoma): 51.4 µM
TGI (SK-MEL-28 melanoma): 33.8 µM
TGI (SK-MEL-5 melanoma): 32.4 µM
TGI (SK-OV-3 ovarian): 80.7 µM
TGI (SN12C renal): 37.3 µM
TGI (SNB-19 CNS): 49.2 µM
TGI (SNB-75 CNS): 80.1 µM
TGI (SNB-78 CNS): 76.2 µM
TGI (SW-620 colon): 58.4 µM
TGI (TK-10 renal): 84 µM
TGI (U251 CNS): 20.6 µM
TGI (UACC-257 melanoma): 65.3 µM
TGI (UACC-62 melanoma): 21.4 µM
TGI (UO-31 renal): 60 µM

OC1=CN=C(c2ccccc2)Oc2ccccc21
TGI (786-0 renal): > 100 µM
TGI (A498 renal): > 100 µM
TGI (A549 NSCLC): > 100 µM
TGI (ACHN renal): > 100 µM
TGI (CCRF-CEM leukemia): > 100 µM
TGI (COLO 205 colon): > 100 µM
TGI (DLD-1 colon): > 100 µM
TGI (DMS 114 small cell lung): > 100 µM
TGI (DMS 273 small cell lung): > 100 µM
TGI (EKVX NSCLC): > 100 µM
TGI (HCC-2998 colon): > 100 µM
TGI (HCT-116 colon): > 100 µM
TGI (HCT-15 colon): > 100 µM
TGI (HL-60(TB) leukemia): > 100 µM
TGI (HOP-62 NSCLC): > 100 µM
TGI (HOP-92 NSCLC): > 100 µM
TGI (HT29 colon): > 100 µM
TGI (IGROV1 ovarian): > 100 µM
TGI (K-562 leukemia): > 100 µM
TGI (KM12 colon): > 100 µM
TGI (KM20L2 colon): > 100 µM
TGI (LOX IMVI melanoma): > 100 µM
TGI (LXFL 529 NSCLC): > 100 µM
TGI (M14 melanoma): > 100 µM
TGI (M19-MEL melanoma): > 100 µM
TGI (MALME-3M melanoma): > 100 µM
TGI (MOLT-4 leukemia): > 100 µM
TGI (NCI-H226 lung): 97.5 µM
TGI (NCI-H23 lung): > 100 µM
TGI (NCI-H460 lung): > 100 µM
TGI (OVCAR-3 ovarian): > 100 µM
TGI (OVCAR-4 ovarian): > 100 µM
TGI (OVCAR-8 ovarian): > 100 µM
TGI (RPMI-8226 leukemia): > 100 µM
TGI (RXF 393 renal): > 100 µM
TGI (RXF-631 renal): > 100 µM
TGI (SF-268 CNS): > 100 µM
TGI (SF-295 CNS): > 100 µM
TGI (SF-539 CNS): 38.7 µM
TGI (SK-MEL-2 melanoma): > 100 µM
TGI (SK-MEL-28 melanoma): > 100 µM
TGI (SK-MEL-5 melanoma): > 100 µM
TGI (SK-OV-3 ovarian): > 100 µM
TGI (SN12C renal): > 100 µM
TGI (SNB-19 CNS): > 100 µM
TGI (SNB-75 CNS): > 100 µM
TGI (SNB-78 CNS): > 100 µM
TGI (SW-620 colon): > 100 µM
TGI (TK-10 renal): > 100 µM
TGI (U251 CNS): > 100 µM
TGI (UACC-257 melanoma): > 100 µM
TGI (UACC-62 melanoma): > 100 µM
TGI (UO-31 renal): > 100 µM
